Numbers after ± are expanded uncertainties.
conditions: Liquid

| Critical pressure [kPa] | Critical temperature [K] | Compound |
| --- | --- | --- |
| 7420 ± 250 | 304.5 ± 2.5 | O=C=O [carbon dioxide] |
| 3020 ± 250 | 507.4 ± 2.5 | CCCCCC [hexane] |
| 8120 ± 250 | 512.6 ± 2.5 | CO [methanol] |

Source: the NIST ThermoML archive (doi:10.1021/je034127q)
